Assay results from patent US11524003B2, “Alpha-amino esters of hydroxypropylthiazolidine carboxamide derivative and salt form, crystal polymorph thereof” (ObsEva S.A., priority 2016, dated 2022).
Converted amounts (≈) assume the structure as drawn. Read-outs that look alike come from different tables or passages of the source.

Key:
[1] = Solubility in water, FaSSIF and FeSSIF; type: physicochemical
[2] = tested on: other prostaglandin receptor subtypes; conditions: FP over other subtypes
Experimental: (§1) Selectivity of compound II was tested against all eight prostaglandin receptor subtypes.

[3] = target: prostaglandin E receptor 2 (EP2) (Homo sapiens, UniProt P43116); conditions: FP over EP2
Experimental: as §1

[4] = tested on: proinflammatory proteins (COX-2, p-cPLA2, p-p65, p-p38, p-ERK); assay: Western blot of proinflammatory proteins in human myometrial and amnion biopsies
Experimental: FIG. 79a is a Western blot showing the effects of oxytocin, nolasiban, and a combination thereof on the expression of phosphorylated p65 (p-p65), phosphorylated p38 (p-p38), and phosphorylated extracellular signal-regulated kinase (p-ERK) in N=6 term, pre-laboring myometrial biopsies collected from human female subjects undergoing caesarean section delivery. Samples were either unstimulated (“NS”), stimulated with oxytocin (“OT”), treated with nolasiban at a concentration of 1 μM, or treated with both oxytocin and nolasiban at a concentration of 1 μM for the indicated periods of time. A blot against β-actin was performed as a control. FIG. 79b is a Western blot showing the effects of oxytocin and/or varying concentration of compound II, optionally in combination with nolasiban, on the expression of p-p65, p-p38, and p-ERK in N=6 term, pre-laboring myometrial biopsies collected from human female subjects undergoing caesarean section delivery. Samples were either unstimulated (“NS”), stimulated with oxytocin (“OT”), treated with compound II at a concentration of 3 μM, or treated with both oxytocin and compound II at varying concentrations of compound II, both in the presence and absence of nolasiban at a concentration of 1 μM for the indicated periods of time. A blot against β-actin was performed as a control. […]

human FP = human FP (Homo sapiens, UniProt P43088); assay: IP3 synthesis in FP-transfected HEK293-EBNA cells; conditions: tested up to 10 μM
Sequence of human FP (P43088 whole entry): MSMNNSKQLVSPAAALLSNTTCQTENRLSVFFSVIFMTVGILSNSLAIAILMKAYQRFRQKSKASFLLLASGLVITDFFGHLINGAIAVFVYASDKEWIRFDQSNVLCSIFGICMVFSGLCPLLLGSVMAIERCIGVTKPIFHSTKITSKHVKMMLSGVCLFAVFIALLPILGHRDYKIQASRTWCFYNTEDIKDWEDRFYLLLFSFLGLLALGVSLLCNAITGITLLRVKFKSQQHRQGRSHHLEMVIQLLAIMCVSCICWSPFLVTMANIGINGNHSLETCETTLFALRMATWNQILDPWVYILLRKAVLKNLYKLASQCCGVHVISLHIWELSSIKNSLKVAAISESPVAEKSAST

Sequence of prostaglandin E receptor 2 (EP2) (P43116 whole entry): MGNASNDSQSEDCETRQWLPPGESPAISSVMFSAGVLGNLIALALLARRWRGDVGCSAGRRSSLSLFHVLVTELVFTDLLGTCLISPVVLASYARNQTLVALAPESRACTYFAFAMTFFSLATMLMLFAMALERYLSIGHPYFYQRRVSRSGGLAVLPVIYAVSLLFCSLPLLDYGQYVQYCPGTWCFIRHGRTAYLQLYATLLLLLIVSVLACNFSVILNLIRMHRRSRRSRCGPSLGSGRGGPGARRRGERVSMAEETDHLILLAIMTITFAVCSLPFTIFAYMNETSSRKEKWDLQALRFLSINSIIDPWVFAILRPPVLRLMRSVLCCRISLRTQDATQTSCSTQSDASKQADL

With O=C(N[C@@H](CCO)c1ccc(F)cc1)[C@@H]1SCCN1S(=O)(=O)c1ccc(-c2ccccc2)cc1 [Compound II, 3-([1,1′-biphenyl]-4-ylsulfonyl)-N-[1-(4-fluorophenyl)-3-hydroxypropyl]-1,3-thiazolidine-2-carboxamide] as the molecule, how does the solubility ([1]; FaSSIF, pH 6.5 (fasted state), read-out: Solubility in FaSSIF pH 6.5) read?
The solubility was 0.4 µg/mL (≈ 0.799 µM).

And the solubility ([1]; FeSSIF, pH 5.0 (fed state), read-out: Solubility in FeSSIF pH 5.0)?
Its solubility is 10 µg/mL (≈ 20 µM).

And the “Selectivity against other prostaglandin receptors” value [2]?
Its value is “higher than 100 fold”.

And the “Selectivity versus prostaglandin E receptor 2 (EP2)” value [3]?
Its value is “approximately 10 fold”.

What about the “Expression of proinflammatory proteins” value [4] of the same molecule?
Its value is “capable of reducing the expression of various proinflammatory proteins”.

What about the “Agonist activity (IP3 synthesis when added alone)” value (human FP) of the same molecule?
The value was “did not induce any synthesis of IP3”.
